From ChEMBL document CHEMBL1154216, “Development of a novel expression, ZI MAX/K ZI, for determination of the counter-anion effect on the antimicrobial activity of tetrabutylammonium salts” (2009)

Columns and labels:
[1] = system: Escherichia coli; assay: Antimicrobial activity against Escherichia coli K-12 C600 assessed as ratio of maximum zone of inhibition to concentration required to reach half maximum zone of inhibition after 24 hrs; assay type: functional
[2] = system: Staphylococcus epidermidis; assay type: functional, ATCC 12228
Description: Antimicrobial activity against Staphylococcus epidermidis ATCC 12228 assessed as ratio of maximum zone of inhibition to concentration required to reach half maximum zone of inhibition after 24 hrs

| SMILES | ZImax/KZI [1] [mm microL/micromol] | ZImax/KZI [2] [mm microL/micromol] |
| --- | --- | --- |
| CCCC[N+](CCCC)(CCCC)CCCC.Cc1ccc(S(=O)(=O)[O-])cc1 | 0 | 8.55 |
| CC(O)C(=O)[O-].CCCC[N+](CCCC)(CCCC)CCCC | 0 | 103.09 |
| CCCC[N+](CCCC)(CCCC)CCCC.O=[N+]([O-])[O-] [BIS(TETRABUTYLAMMONIUM)MONONITRATE] | 0.333 | 30.67 |
| Br.Br.CCCC[N+](CCCC)(CCCC)CCCC.[Br-] [MONO(TETRABUTYLAMMONIUM)TRIBROMIDE] | 37.59 | 48.08 |
| CC(=O)[O-].CCCC[N+](CCCC)(CCCC)CCCC [TETRABUTYLAMMONIUM ACETATE] | 4.2 | 37.88 |
| CCCC[N+](CCCC)(CCCC)CCCC.O=C([O-])c1ccccc1 [TETRABUTYLAMMONIUM BENZOATE] | 0.333 | 39.81 |
| CCCC[N+](CCCC)(CCCC)CCCC.[Br-] [TETRABUTYLAMMONIUM BROMIDE] | 0.516 | 16.69 |
| CCCC[N+](CCCC)(CCCC)CCCC.O=P([O-])(O)O [TETRABUTYLAMMONIUM DIHYDROGENPHOSPHATE] | 0 | 23.58 |
| CCCC[N+](CCCC)(CCCC)CCCC.[F-] [TETRABUTYLAMMONIUM FLUORIDE] | 0.842 | 15.82 |
| CCCC[N+](CCCC)(CCCC)CCCC.O=S(=O)([O-])O [TETRABUTYLAMMONIUM HYDROGENSULFATE] | 4.98 | 84.03 |
| CCCC[N+](CCCC)(CCCC)CCCC.[OH-] [TETRABUTYLAMMONIUM HYDROXIDE] | 4.06 | 27.17 |
| CCCC[N+](CCCC)(CCCC)CCCC.[I-] [TETRABUTYLAMMONIUM IODIDE] | 0.381 | 140.85 |
| CCCC[N+](CCCC)(CCCC)CCCC.CS(=O)(=O)[O-] [TETRABUTYLAMMONIUM METHANESULFONATE] | 0.167 | 23.53 |
| CCCC[N+](CCCC)(CCCC)CCCC.[O-][Cl+3]([O-])([O-])[O-] [TETRABUTYLAMMONIUM PERCHLORATE] | 0 | 14.77 |
| CCCC[N+](CCCC)(CCCC)CCCC.O=P[O-] [TETRABUTYLAMMONIUM PHOSPHENITE] | 0.408 | 52.08 |
| CCCC[N+](CCCC)(CCCC)CCCC.F[B-](F)(F)F [TETRABUTYLAMMONIUM TETRAFLUOROBORATE] | 0.499 | 25.71 |
| CCCC[N+](CCCC)(CCCC)CCCC.N#C[S-] [TETRABUTYLAMMONIUM THIOCYANATE] | 6.28 | 11.59 |
| CCCC[N+](CCCC)(CCCC)CCCC.O=S(=O)([O-])C(F)(F)F [TETRABUTYLAMMONIUM TRIFLUOROMETHANESULFONATE] | 0.067 | 64.94 |
| CCCC[N+](CCCC)(CCCC)CCCC.[Cl-] [TETRABUTYLAMMONIUM] | 0.382 | 23.58 |
